From US20160108049A1 (TAKEDA Gmbh, priority 2011, published 2016) come the findings set out here.

For one assay, the target named is T1, human PDE5 (Homo sapiens, UniProt O76074).
T1 construct: from tissue; host or cells: human platelets from fresh donor blood (platelet lysate)
Put plainly: Inhibition of PDE5 activity (platelet lysate, SPA assay). Type of assay: biochemical. The settings on record: 0.5 μM cGMP, read-out: PDE5 Inhibitory values measured as -logIC50 (converted). Summed up:
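Human platelet lysate (10,000 g supernatant) served as PDE5 source, with 1 μM motapizone and 10 nM PDE2 inhibitor added, in Tris pH 7.4, 5 mM Mg2+, BSA. Substrate 0.5 μM [3H]cGMP, 10–20% conversion; 5 min preincubation then 15 min at 37 °C, stopped by SPA beads with IBMX. IC50 by non-linear regression.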

The next assay addresses T2, PDE4B1 (Homo sapiens, UniProt Q07343).
T2 construct: made in house; host or cells: SF21 insect cells (baculovirus; virus made in SF9 cells, pCR-Bac vector)
Description: Inhibition of PDE4 activity (PDE4B1, SPA assay). Type of assay: biochemical. The settings on record: recombinant PDE4B1, 0.5 μM cAMP; read-out: PDE4B1 Inhibitory values measured as -logIC50 (converted). A digest of the protocol: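 Baculovirus-expressed enzyme from SF21 cell 1000×g supernatant; substrate 0.5 μM [3H]cAMP in 20 mM Tris pH 7.4, 5 mM Mg2+, 0.1 mg/ml BSA, 10-20% conversion. 5 min preincubation at 37 °C, 15 min reaction, stopped by SPA beads with IBMX; IC50 by non-linear regression.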

T2 sequence (Q07343 whole entry): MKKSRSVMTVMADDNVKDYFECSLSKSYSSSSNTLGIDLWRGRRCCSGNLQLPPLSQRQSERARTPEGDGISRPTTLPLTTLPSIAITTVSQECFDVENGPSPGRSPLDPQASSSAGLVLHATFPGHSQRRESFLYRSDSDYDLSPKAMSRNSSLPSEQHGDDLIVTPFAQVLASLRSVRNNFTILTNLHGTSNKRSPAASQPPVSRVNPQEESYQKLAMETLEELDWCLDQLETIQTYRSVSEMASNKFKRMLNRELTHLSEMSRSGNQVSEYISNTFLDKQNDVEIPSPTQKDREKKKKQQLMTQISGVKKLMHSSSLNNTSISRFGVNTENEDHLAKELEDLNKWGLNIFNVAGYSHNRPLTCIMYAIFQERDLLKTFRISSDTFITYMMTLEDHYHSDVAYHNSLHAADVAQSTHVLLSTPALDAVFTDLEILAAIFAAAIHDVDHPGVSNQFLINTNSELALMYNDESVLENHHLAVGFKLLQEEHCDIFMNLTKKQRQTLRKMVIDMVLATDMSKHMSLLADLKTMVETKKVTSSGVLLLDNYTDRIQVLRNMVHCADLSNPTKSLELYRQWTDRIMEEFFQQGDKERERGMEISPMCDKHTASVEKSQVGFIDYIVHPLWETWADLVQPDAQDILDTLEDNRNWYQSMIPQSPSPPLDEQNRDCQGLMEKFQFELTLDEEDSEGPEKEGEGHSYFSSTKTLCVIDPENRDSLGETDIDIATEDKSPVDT

In the case of `COc1ccc(C2=NN(C3CCN(C(=O)[C@H](Cc4ccncc4)NC(=O)c4c(C)[nH]c5c(-c6c(OCC7CC7)ccc7c6OCO7)ncnc45)CC3)C(=O)[C@@H]3CCCC[C@H]23)cc1OC` [Example 40, 4-[5-(cyclopropylmethoxy)-1,3-benzodioxol-4-yl]-N-[(2S)-1-{4-[(4aS,8aR)-4-(3,4-dimethoxyphenyl)-1-oxo-4a,5,6,7,8,8a-hexahydrophthalazin-2(1H)-yl]piperidin-1-yl}-1-oxo-3-(pyridin-4-yl)propan-2-yl]-6-methyl-5H-pyrrolo[3,2-d]pyrimidine-7-carboxamide], the values for the IC50 on human PDE5 and on PDE4B1 were less than 1 nM and 1 to 10 nM, respectively.
Regarding `COc1ccc(C2=NN(C3CCN(C(=O)[C@H](Cc4ccncc4)NC(=O)c4c[nH]c5c(-c6c(OCC7CC7)ccc7c6OCO7)ncnc45)CC3)C(=O)[C@@H]3CCCC[C@H]23)cc1OC` [Example 41, 4-[5-(cyclopropylmethoxy)-1,3-benzodioxol-4-yl]-N-[(2S)-1-{4-[(4aS,8aR)-4-(3,4-dimethoxyphenyl)-1-oxo-4a,5,6,7,8,8a-hexahydrophthalazin-2(1H)-yl]piperidin-1-yl}-1-oxo-3-(pyridin-4-yl)propan-2-yl]-5H-pyrrolo[3,2-d]pyrimidine-7-carboxamide], the IC50 on human PDE5 and at PDE4B1 was less than 1 nM throughout.
For the compound `COc1ccc(C2=NN(C3CCN(C(=O)[C@H](Cc4cccnc4)NC(=O)c4c(C)[nH]c5c(-c6c(OCC7CC7)ccc7c6OCO7)ncnc45)CC3)C(=O)[C@@H]3CCCC[C@H]23)cc1OC` [Example 42, 4-[5-(cyclopropylmethoxy)-1,3-benzodioxol-4-yl]-N-[(2S)-1-{4-[(4aS,8aR)-4-(3,4-dimethoxyphenyl)-1-oxo-4a,5,6,7,8,8a-hexahydrophthalazin-2(1H)-yl]piperidin-1-yl}-1-oxo-3-(pyridin-3-yl)propan-2-yl]-6-methyl-5H-pyrrolo[3,2-d]pyrimidine-7-carboxamide], the IC50 on human PDE5 and on PDE4B1 was less than 1 nM throughout.
Turning to `COc1ccc(C2=NN(C3CCN(C(=O)[C@H](Cc4cccnc4)NC(=O)c4c[nH]c5c(-c6c(OCC7CC7)ccc7c6OCO7)ncnc45)CC3)C(=O)[C@@H]3CCCC[C@H]23)cc1OC` [Example 43, 4-[5-(cyclopropylmethoxy)-1,3-benzodioxol-4-yl]-N-[(2S)-1-{4-[(4aS,8aR)-4-(3,4-dimethoxyphenyl)-1-oxo-4a,5,6,7,8,8a-hexahydrophthalazin-2(1H)-yl]piperidin-1-yl}-1-oxo-3-(pyridin-3-yl)propan-2-yl]-5H-pyrrolo[3,2-d]pyrimidine-7-carboxamide], the IC50 at human PDE5 and on PDE4B1 was less than 1 nM in each case.
For `COc1ccc(C2=NN(C3CCN(C(=O)[C@H](Cc4ccccc4)NC(=O)c4c[nH]c5c(-c6c(OCC7CC7)ccc7c6OCO7)ncnc45)CC3)C(=O)[C@H]3CCCC[C@@H]23)cc1OC` [Example 44, 4-[5-(cyclopropylmethoxy)-1,3-benzodioxol-4-yl]-N-[(2S)-1-{4-[(4aR,8aS)-4-(3,4-dimethoxyphenyl)-1-oxo-4a,5,6,7,8,8a-hexahydrophthalazin-2(1H)-yl]piperidin-1-yl}-1-oxo-3-phenylpropan-2-yl]-5H-pyrrolo[3,2-d]pyrimidine-7-carboxamide], the IC50 at human PDE5 was 1 to 10 nM; on PDE4B1, greater than 10 nM.
On to `COc1ccc(C2=NN(C3CCN(C(=O)[C@@H](Cc4ccccc4)NC(=O)c4c[nH]c5c(-c6c(OCC7CC7)ccc7c6OCO7)ncnc45)CC3)C(=O)[C@H]3CCCC[C@@H]23)cc1OC` [Example 45, 4-[5-(cyclopropylmethoxy)-1,3-benzodioxol-4-yl]-N-[(2R)-1-{4-[(4aR,8aS)-4-(3,4-dimethoxyphenyl)-1-oxo-4a,5,6,7,8,8a-hexahydrophthalazin-2(1H)-yl]piperidin-1-yl}-1-oxo-3-phenylpropan-2-yl]-5H-pyrrolo[3,2-d]pyrimidine-7-carboxamide], for which the IC50 at human PDE5 was 1 to 10 nM; on PDE4B1, greater than 10 nM.
For the compound `COc1ccc(C2=NN(C3CCN(C(=O)[C@@H](Cc4ccc(C(C)(C)C)cc4)NC(=O)c4c(C)[nH]c5c(-c6c(OCC7CC7)ccc7c6OCO7)ncnc45)CC3)C(=O)[C@@H]3CCCC[C@H]23)cc1OC` [Example 46, N-[(2R)-3-(4-tert-butylphenyl)-1-{4-[(4aS,8aR)-4-(3,4-dimethoxyphenyl)-1-oxo-4a,5,6,7,8,8a-hexahydrophthalazin-2(1H)-yl]piperidin-1-yl}-1-oxopropan-2-yl]-4-[5-(cyclopropylmethoxy)-1,3-benzodioxol-4-yl]-6-methyl-5H-pyrrolo[3,2-d]pyrimidine-7-carboxamide], the IC50 on human PDE5 and at PDE4B1 was 1 to 10 nM throughout.
On to `COc1ccc(C2=NN(C3CCN(C(=O)[C@H](Cc4ccc(F)cc4)NC(=O)c4c[nH]c5c(-c6c(OCC7CC7)ccc7c6OCO7)ncnc45)CC3)C(=O)[C@@H]3CCCC[C@H]23)cc1OC` [Example 47, 4-[5-(cyclopropylmethoxy)-1,3-benzodioxol-4-yl]-N-[(2S)-1-{4-[(4aS,8aR)-4-(3,4-dimethoxyphenyl)-1-oxo-4a,5,6,7,8,8a-hexahydrophthalazin-2(1H)-yl]piperidin-1-yl}-3-(4-fluorophenyl)-1-oxopropan-2-yl]-5H-pyrrolo[3,2-d]pyrimidine-7-carboxamide], for which the IC50 at human PDE5 and on PDE4B1 was 1 to 10 nM each time.
Turning to `COc1ccc(C2=NN(C3CCN(C(=O)[C@@H](Cc4ccc(Cl)cc4Cl)NC(=O)c4c[nH]c5c(-c6c(OCC7CC7)ccc7c6OCO7)ncnc45)CC3)C(=O)[C@@H]3CCCC[C@H]23)cc1OC` [Example 48, 4-[5-(cyclopropylmethoxy)-1,3-benzodioxol-4-yl]-N-[(2R)-3-(2,4-dichlorophenyl)-1-{4-[(4aS,8aR)-4-(3,4-dimethoxyphenyl)-1-oxo-4a,5,6,7,8,8a-hexahydrophthalazin-2(1H)-yl]piperidin-1-yl}-1-oxopropan-2-yl]-5H-pyrrolo[3,2-d]pyrimidine-7-carboxamide], the IC50 on human PDE5 and at PDE4B1 was less than 1 nM each time.
For `COc1ccc(C2=NN(C3CCN(C(=O)[C@@H](Cc4ccc(C(F)(F)F)cc4)NC(=O)c4c[nH]c5c(-c6c(OCC7CC7)ccc7c6OCO7)ncnc45)CC3)C(=O)[C@@H]3CCCC[C@H]23)cc1OC` [Example 49, 4-[5-(cyclopropylmethoxy)-1,3-benzodioxol-4-yl]-N-{(2R)-1-{4-[(4aS,8aR)-4-(3,4-dimethoxyphenyl)-1-oxo-4a,5,6,7,8,8a-hexahydrophthalazin-2(1H)-yl]piperidin-1-yl}-1-oxo-3-[4-(trifluoromethyl)phenyl]propan-2-yl}-5H-pyrrolo[3,2-d]pyrimidine-7-carboxamide], the IC50 at human PDE5 and at PDE4B1 was 1 to 10 nM throughout.
As to `COc1ccc(C2=NN(C3CCN(C(=O)[C@H](NC(=O)c4c[nH]c5c(-c6c(OCC7CC7)ccc7c6OCO7)ncnc45)[C@H](C)c4ccccc4)CC3)C(=O)[C@@H]3CCCC[C@H]23)cc1OC` [Example 50, 4-[5-(cyclopropylmethoxy)-1,3-benzodioxol-4-yl]-N-[(2R,3R)-1-{4-[(4aS,8aR)-4-(3,4-dimethoxyphenyl)-1-oxo-4a,5,6,7,8,8a-hexahydrophthalazin-2(1H)-yl]piperidin-1-yl}-1-oxo-3-phenylbutan-2-yl]-5H-pyrrolo[3,2-d]pyrimidine-7-carboxamide], the IC50 on human PDE5 is 1 to 10 nM; on PDE4B1, less than 1 nM.
Consider `COc1ccc(C2=NN(C3CCN(C(=O)[C@H](NC(=O)c4c(C)[nH]c5c(-c6c(OCC7CC7)ccc7c6OCO7)ncnc45)[C@H](C)c4ccccc4)CC3)C(=O)[C@@H]3CCCC[C@H]23)cc1OC` [Example 51, 4-[5-(cyclopropylmethoxy)-1,3-benzodioxol-4-yl]-N-[(2R,3R)-1-{4-[(4aS,8aR)-4-(3,4-dimethoxyphenyl)-1-oxo-4a,5,6,7,8,8a-hexahydrophthalazin-2(1H)-yl]piperidin-1-yl}-1-oxo-3-phenylbutan-2-yl]-6-methyl-5H-pyrrolo[3,2-d]pyrimidine-7-carboxamide], for which the IC50 at human PDE5 is 1 to 10 nM; at PDE4B1, less than 1 nM.
For `COc1ccc(C2=NN(C3CCN(C(=O)[C@@H](Cc4ccc(O)cc4)NC(=O)c4c[nH]c5c(-c6c(OCC7CC7)ccc7c6OCO7)ncnc45)CC3)C(=O)[C@@H]3CCCC[C@H]23)cc1OC` [Example 52, 4-[5-(cyclopropylmethoxy)-1,3-benzodioxol-4-yl]-N-[(2R)-1-{4-[(4aS,8aR)-4-(3,4-dimethoxyphenyl)-1-oxo-4a,5,6,7,8,8a-hexahydrophthalazin-2(1H)-yl]piperidin-1-yl}-3-(4-hydroxyphenyl)-1-oxopropan-2-yl]-5H-pyrrolo[3,2-d]pyrimidine-7-carboxamide], in that order: less than 1 nM and less than 1 nM.
Regarding `COc1ccc(C2=NN(C3CCN(C(=O)[C@H](Cc4ccc(O)cc4)NC(=O)c4c[nH]c5c(-c6c(OCC7CC7)ccc7c6OCO7)ncnc45)CC3)C(=O)[C@@H]3CCCC[C@H]23)cc1OC` [Example 53, 4-[5-(cyclopropylmethoxy)-1,3-benzodioxol-4-yl]-N-[(2S)-1-{4-[(4aS,8aR)-4-(3,4-dimethoxyphenyl)-1-oxo-4a,5,6,7,8,8a-hexahydrophthalazin-2(1H)-yl]piperidin-1-yl}-3-(4-hydroxyphenyl)-1-oxopropan-2-yl]-5H-pyrrolo[3,2-d]pyrimidine-7-carboxamide], the IC50 on human PDE5 was 1 to 10 nM; on PDE4B1, less than 1 nM.
